Columns and labels:
Mus musculus [1] = assay: Tested for biodistribution of radioactivity after 1 hr of intravenous injection in mice blood; assay type: ADME, organism-based; settings: in vivo
Mus musculus [2] = assay: Tested for biodistribution of radioactivity after 30 min of intravenous injection in mice blood; assay type: ADME, organism-based; settings: in vivo, 0.5 h
Mus musculus [3] = assay: Tested for biodistribution of radioactivity after 3h of intravenous injection in mice blood; assay type: ADME, organism-based; settings: in vivo
Mus musculus [4] = assay: Tested for biodistribution of radioactivity after 6 hr of intravenous injection in mice blood; assay type: ADME, organism-based; settings: in vivo
Mus musculus [5] = assay: Tested for biodistribution of radioactivity after 5 min of intravenous injection in mice liver; assay type: ADME, organism-based; settings: in vivo
Mus musculus [6] = assay: Tested for biodistribution of radioactivity after 5 min of intravenous injection in mice neck; assay type: ADME, organism-based; settings: in vivo
Mus musculus [7] = assay: Tested for biodistribution of radioactivity after 5 min of intravenous injection in mice spleen; assay type: ADME, organism-based; settings: in vivo
Mus musculus [8] = assay: Tested for biodistribution of radioactivity after 5 min of intravenous injection in mice stomach; assay type: ADME, organism-based; settings: in vivo
Mus musculus [9] = assay: Tested for biodistribution of radioactivity after 5 min of intravenous injection in mice kidneys; assay type: ADME, organism-based; settings: in vivo
Mus musculus [10] = assay: Tested for biodistribution of radioactivity after 6 hr of intravenous injection in mice feces; assay type: ADME, organism-based; settings: in vivo
Mus musculus [11] = assay: Tested for biodistribution of radioactivity after 6 hr of intravenous injection in mice intestines; assay type: ADME, organism-based, Intestine; settings: in vivo
Mus musculus [12] = assay: Tested for biodistribution of radioactivity after 6 hr of intravenous injection in mice kidneys; assay type: ADME, organism-based, Kidney; settings: in vivo
Mus musculus [13] = assay: Tested for biodistribution of radioactivity after 6 hr of intravenous injection in mice liver; assay type: ADME, organism-based; settings: in vivo
Mus musculus [14] = assay: Tested for biodistribution of radioactivity after 6 hr of intravenous injection in mice neck; assay type: ADME, organism-based; settings: in vivo
Mus musculus [15] = assay: Tested for biodistribution of radioactivity after 30 min of intravenous injection in mice neck; assay type: ADME, organism-based; settings: in vivo, 0.5 h
Mus musculus [16] = assay: Tested for biodistribution of radioactivity after 30 min of intravenous injection in mice spleen; assay type: ADME, organism-based; settings: in vivo, 0.5 h
Mus musculus [17] = assay: Tested for biodistribution of radioactivity after 30 min of intravenous injection in mice stomach; assay type: ADME, organism-based; settings: in vivo, 0.5 h
Mus musculus [18] = assay: Tested for biodistribution of radioactivity after 3h of intravenous injection in mice intestines; assay type: ADME, organism-based, Intestine; settings: in vivo
Mus musculus [19] = assay: Tested for biodistribution of radioactivity after 3h of intravenous injection in mice kidneys; assay type: ADME, organism-based, Kidney; settings: in vivo
Mus musculus [20] = assay: Tested for biodistribution of radioactivity after 3h of intravenous injection in mice neck; assay type: ADME, organism-based; settings: in vivo
Mus musculus [21] = assay: Tested for biodistribution of radioactivity after 3h of intravenous injection in mice spleen; assay type: ADME, organism-based; settings: in vivo
Mus musculus [22] = assay: Tested for biodistribution of radioactivity after 3h of intravenous injection in mice stomach; assay type: ADME, organism-based; settings: in vivo
Mus musculus [23] = assay: Tested for biodistribution of radioactivity after 1 hr of intravenous injection in mice intestines; assay type: ADME, organism-based, Intestine; settings: in vivo
Mus musculus [24] = assay: Tested for biodistribution of radioactivity after 1 hr of intravenous injection in mice liver; assay type: ADME, organism-based; settings: in vivo
Mus musculus [25] = assay: Tested for biodistribution of radioactivity after 6 hr of intravenous injection in mice spleen; assay type: ADME, organism-based; settings: in vivo
Mus musculus [26] = assay: Tested for biodistribution of radioactivity after 6 hr of intravenous injection in mice stomach; assay type: ADME, organism-based; settings: in vivo
Mus musculus [27] = assay: Tested for biodistribution of radioactivity after 6 hr of intravenous injection in mice urine; assay type: ADME, organism-based; settings: in vivo
Mus musculus [28] = assay: Tested for biodistribution of radioactivity after 1 hr of intravenous injection in mice neck; assay type: ADME, organism-based; settings: in vivo
Mus musculus [29] = assay: Tested for biodistribution of radioactivity after 1 hr of intravenous injection in mice spleen; assay type: ADME, organism-based; settings: in vivo
Mus musculus [30] = assay: Tested for biodistribution of radioactivity after 1 hr of intravenous injection in mice stomach; assay type: ADME, organism-based; settings: in vivo
Mus musculus [31] = assay: Tested for biodistribution of radioactivity after 24 hr of intravenous injection in mice feces; assay type: ADME, organism-based; settings: in vivo
Mus musculus [32] = assay: Tested for biodistribution of radioactivity after 24 hr of intravenous injection in mice intestines; assay type: ADME, organism-based, Intestine; settings: in vivo
Mus musculus [33] = assay: Tested for biodistribution of radioactivity after 24 hr of intravenous injection in mice kidneys; assay type: ADME, organism-based, Kidney; settings: in vivo
Mus musculus [34] = assay: Tested for biodistribution of radioactivity after 24 hr of intravenous injection in mice liver; assay type: ADME, organism-based; settings: in vivo
Mus musculus [35] = assay: Tested for biodistribution of radioactivity after 24 hr of intravenous injection in mice neck; assay type: ADME, organism-based; settings: in vivo
Mus musculus [36] = assay: Tested for biodistribution of radioactivity after 24 hr of intravenous injection in mice spleen; assay type: ADME, organism-based; settings: in vivo
Mus musculus [37] = assay: Tested for biodistribution of radioactivity after 24 hr of intravenous injection in mice stomach; assay type: ADME, organism-based; settings: in vivo
Mus musculus [38] = assay: Tested for biodistribution of radioactivity after 30 min of intravenous injection in mice kidneys; assay type: ADME, organism-based; settings: in vivo, 0.5 h
Mus musculus [39] = assay: Tested for biodistribution of radioactivity after 30 min of intravenous injection in mice lintestines; assay type: ADME, organism-based, Intestine; settings: in vivo, 0.5 h
Mus musculus [40] = assay: Tested for biodistribution of radioactivity after 30 min of intravenous injection in mice liver; assay type: ADME, organism-based; settings: in vivo, 0.5 h
Mus musculus [41] = assay: Tested for biodistribution of radioactivity after 3h of intravenous injection in mice liver; assay type: ADME, organism-based; settings: in vivo
Mus musculus [42] = assay: Tested for biodistribution of radioactivity after 1 hr of intravenous injection in mice kidneys; assay type: ADME, organism-based, Kidney; settings: in vivo
Mus musculus [43] = assay: Tested for biodistribution of radioactivity after 24 hr of intravenous injection in mice urine; assay type: ADME, organism-based; settings: in vivo
Mus musculus [44] = assay: Tested for biodistribution of radioactivity after 24 hr of intravenous injection in mice blood; assay type: ADME, organism-based; settings: in vivo
Mus musculus [45] = assay: Tested for biodistribution of radioactivity after 5 min of intravenous injection in mice blood; assay type: ADME, organism-based; settings: in vivo
Mus musculus [46] = assay: Tested for biodistribution of radioactivity after 5 min of intravenous injection in mice intestines; assay type: ADME, organism-based, Intestine; settings: in vivo

## CN[C@@H](CCCCN)C(=O)NC(=O)c1cccc(I)c1
Mus musculus [1]
  Dose/g: 0.28%
Mus musculus [2]
  Dose/g: 1.16%
Mus musculus [3]
  Dose/g: 0.11%
Mus musculus [4]
  Dose/g: 0.04%
Mus musculus [5]
  Dose/organ: 92.86%
Mus musculus [6]
  Dose/organ: 0.16%
Mus musculus [7]
  Dose/organ: 0.02%
Mus musculus [8]
  Dose/organ: 0.16%
Mus musculus [9]
  Dose/organ: 0.8%
Mus musculus [10]
  Dose/organ: 1.53%
Mus musculus [11]
  Dose/organ: 1.83%
Mus musculus [12]
  Dose/organ: 0.31%
Mus musculus [13]
  Dose/organ: 2.82%
Mus musculus [14]
  Dose/organ: 0.01%
Mus musculus [15]
  Dose/organ: 0.14%
Mus musculus [16]
  Dose/organ: 0.07%
Mus musculus [17]
  Dose/organ: 0.65%
Mus musculus [18]
  Dose/organ: 6.42%
Mus musculus [19]
  Dose/organ: 0.7%
Mus musculus [20]
  Dose/organ: 0.02%
Mus musculus [21]
  Dose/organ: 0.01%
Mus musculus [22]
  Dose/organ: 0.36%
Mus musculus [23]
  Dose/organ: 10.73%
Mus musculus [24]
  Dose/organ: 6.96%
Mus musculus [25]
  Dose/organ: 0.02%
Mus musculus [26]
  Dose/organ: 0.32%
Mus musculus [27]
  Dose/organ: 63.2%
Mus musculus [28]
  Dose/organ: 0.03%
Mus musculus [29]
  Dose/organ: 0.09%
Mus musculus [30]
  Dose/organ: 0.43%
Mus musculus [31]
  Dose/organ: 3.26%
Mus musculus [32]
  Dose/organ: 0.07%
Mus musculus [33]
  Dose/organ: 0.02%
Mus musculus [34]
  Dose/organ: 0.18%
Mus musculus [35]
  Dose/organ: 0.01%
Mus musculus [36]
  Dose/organ: 0.02%
Mus musculus [37]
  Dose/organ: 0.04%
Mus musculus [38]
  Dose/organ: 6.42%
Mus musculus [39]
  Dose/organ: 9.45%
Mus musculus [40]
  Dose/organ: 21.18%
Mus musculus [41]
  Dose/organ: 4.18%
Mus musculus [42]
  Dose/organ: 1.71%
Mus musculus [43]
  Dose/organ: 83.9%
Mus musculus [44]
  Dose/organ: 0.01%
Mus musculus [45]
  Dose/g: 0.95%
Mus musculus [46]
  Dose/organ: 0.41%
